# In US20200123147A1, “THIAZOLE COMPOUNDS USEFUL AS PRMT5 INHIBITORS” (Bayer Aktiengesellschaft, priority 2017, published 2020):
# Molecular target: T1, PRMT5:MEP50 protein complex (Homo sapiens, UniProt O14744)
# T1 construct: FLAG (N); made in house; host or cells: Hi5 insect cells
# Assay: In vitro assay 1: PRMT5 SPA assay ("EAA")
# Type: biochemical
# Details: scintillation proximity assay, methylation of biotinylated H4(1-24) peptide, 3H-SAM, 60 min at 22° C.
# Excerpt: In Vitro Assay 1: PRMT5 SPA Assay (“EAA”)
# PRMT5 inhibitory activities of the compounds described in the present invention were quantified using a scintillation proximity assay (SPA) which measures methylation by the enzyme of a synthetic, biotinylated peptide corresponding to the N-terminal sequence of Histone H4 (a.a. 1-24). The peptide of sequence […]-K(Btn)-amide is commercially available (e.g. from Biosyntan) and will be herein referred to as H4(1-24). The PRMT5:MEP50 protein complex used in the assay was produced in house following standard protocols. Briefly, full length PRMT5 and MEP50 constructs respectively tagged with N-terminal FLAG and 6× His sequences were co-expressed in Hi5 insect cells, and the recombinant protein complex was purified by FLAG affinity and size exclusion chromatography.
# In a typical assay 11 different concentrations of each compound (0.1 nM, 0.33 nM, 1.1 nM, 3.8 nM, 13 nM, 44 nM, 0.15 μM, 0.51 μM, 1.7 μM, 5.9 μM and 20 μM) were tested in duplicate within the same microtiter plate. To this end, 100-fold concentrated compound solutions (in DMSO) were previously prepared by serial dilution (1:3.4) of 2 mM stocks in a clear low volume 384-well source microtiter plate (Greiner Bio-One), from which 50 nl of compounds were transferred into a white low volume test microtiter plate from the same supplier. Subsequently, 2.5 μL PRMT5 in aqueous assay buffer [20 mM Bicine pH 8.0 (Alfa Aesar), 7.5 mM Tris(2-carboxyethyl) phosphine hydrochloride (TCEP, Sigma), 0.1% (w/v) bovine gamma globuline (BGG, Sigma), 0.002% (v/v) Tween-20 (Sigma)] were added to the compounds in the test plate to a final enzyme concentration of—typically—7.5 nM (this parameter was adjusted depending on the activity of the enzyme lot in order to be within the linear dynamic range of the assay). The samples were then incubated for 15 min at 22° C. to allow pre-equilibration of the putative enzyme-inhibitor complexes before the start of the methylation reaction, which was initiated by the addition of 2.5 μL 2-fold concentrated solution (in assay buffer) of “cold” S-Adenosyl-L-Methionine (SAM, Sigma, final concentration: 0.5 μM), tritiated 3H-SAM (Perkin Elmer, final concentration: 0.5 μM) and H4(1-24) peptide substrate (final concentration: 0.06 μM). The resulting mixture (5 μL final volume) was shortly centrifuged (2 min., 1500 rpm) and incubated at 22° C. during 60 min. Thereupon the reaction was stopped by adding 3 μL of Streptavidin PS SPA imaging beads (Perkin Elmer, final concentration of 0.375 μg/μL) and “cold” SAM (AK Scientific, 250 μM final concentration) for non-specific binding reduction. Plates containing the stopped reaction were sealed with transparent adhesive foil (Perkin Elmer), centrifuged (2 min., 1500 rpm), and further incubated either 1 h at 22° C. or overnight at 4° C. in order to allow the SPA signals to develop. Subsequently, the amount of product was evaluated by measuring the energy transfer from the β-particles emitted by the 3H-labeled substrate to the Europium scintillator co-polymerized in the polystyrene matrix of the PS imaging beads, using the standard settings for this purpose of a Viewlux (Perkin-Elmer) CCD plate imaging device (emission filter 613/55 (IFP).
# The resulting scintillation counts were taken as indicator for the amount of methylated peptide per well. The data were normalised using two sets of control wells (typically 16 each) for high—(=enzyme reaction with DMSO instead of test compound=0%=minimum inhibition) and low—(=all assay components without enzyme=100%=maximum inhibition) PRMT5 activity. IC50 values were calculated by fitting the normalized inhibition data to a 4-parameter logistic equation using the “Screener” analysis software from Genedata.
# T1 sequence (O14744 whole entry, species assumed): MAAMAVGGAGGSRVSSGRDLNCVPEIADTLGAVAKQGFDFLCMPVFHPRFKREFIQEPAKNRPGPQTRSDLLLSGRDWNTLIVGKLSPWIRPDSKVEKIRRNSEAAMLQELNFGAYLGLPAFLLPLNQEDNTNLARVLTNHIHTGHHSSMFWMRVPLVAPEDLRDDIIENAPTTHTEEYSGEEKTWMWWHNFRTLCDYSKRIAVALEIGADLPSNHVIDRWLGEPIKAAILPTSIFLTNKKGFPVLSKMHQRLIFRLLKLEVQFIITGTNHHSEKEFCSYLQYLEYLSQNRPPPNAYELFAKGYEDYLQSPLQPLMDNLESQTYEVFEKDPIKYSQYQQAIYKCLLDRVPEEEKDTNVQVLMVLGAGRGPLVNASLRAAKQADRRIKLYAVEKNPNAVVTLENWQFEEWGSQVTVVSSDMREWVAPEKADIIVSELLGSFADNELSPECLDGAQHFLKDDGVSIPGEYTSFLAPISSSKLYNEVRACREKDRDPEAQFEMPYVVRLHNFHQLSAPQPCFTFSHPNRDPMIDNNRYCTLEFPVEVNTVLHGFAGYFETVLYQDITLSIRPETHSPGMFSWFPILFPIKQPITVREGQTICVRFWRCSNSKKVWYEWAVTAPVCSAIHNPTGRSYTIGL
# T1 sequence (Q9BQA1 whole entry partner, species assumed): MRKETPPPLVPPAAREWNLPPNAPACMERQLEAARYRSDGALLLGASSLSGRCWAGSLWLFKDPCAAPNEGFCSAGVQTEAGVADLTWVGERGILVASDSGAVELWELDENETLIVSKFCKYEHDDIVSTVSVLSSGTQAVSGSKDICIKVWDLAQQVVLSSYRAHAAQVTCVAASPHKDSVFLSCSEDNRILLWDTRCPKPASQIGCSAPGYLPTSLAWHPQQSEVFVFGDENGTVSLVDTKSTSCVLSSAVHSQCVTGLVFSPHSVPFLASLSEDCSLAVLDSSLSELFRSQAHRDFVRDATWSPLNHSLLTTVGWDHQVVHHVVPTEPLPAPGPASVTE
row,SMILES,IC50
1,"CC(C)(C)c1cc(NC(=O)c2csc(NCC3CCCO3)n2)no1 (racemic) [Example 49, (rac)-N-(5-tert-Butyl-1,2-oxazol-3-yl)-2-{[-tetrahydrofuran-2-ylmethyl]amino}-1,3-thiazole-4-carboxamide]",5680 nM
2,"CC(C)(C)c1cc(NC(=O)c2csc(Nc3ccc(F)cn3)n2)no1 [Example 6, N-(5-tert-Butyl-1,2-oxazol-3-yl)-2-[(5-fluoropyridin-2-yl)amino]-1,3-thiazole-4-carboxamide]",118 nM
3,"COc1ccc2[nH]c(NC(=O)c3csc(Nc4ccc(Cl)cc4)n3)nc2c1 [Example 9, 2-[(4-Chlorophenyl)amino]-N-(5-methoxy-1H-benzimidazol-2-yl)-1,3-thiazole-4-carboxamide]",239 nM
4,"O=C(Nc1nccs1)c1csc(Nc2ccc(Cl)cc2)n1 [Example 11, 2-[(4-Chlorophenyl)amino]-N-(1,3-thiazol-2-yl)-1,3-thiazole-4-carboxamide]",280 nM
5,"CC(C)(C)c1cc(NC(=O)c2csc(Nc3ccccc3)n2)n[nH]1 [Example 16, N-(5-tert-Butyl-1H-pyrazol-3-yl)-2-(phenylamino)-1,3-thiazole-4-carboxamide]",438 nM
6,"CC(C)(C)c1cc(NC(=O)c2csc(Nc3ccc(C#N)cc3)n2)no1 [Example 24, N-(5-tert-Butyl-1,2-oxazol-3-yl)-2-[(4-cyanophenyl)amino]-1,3-thiazole-4-carboxamide]",2540 nM
7,"CC(C)(C)c1cc(NC(=O)c2csc(Nc3ccccc3F)n2)no1 [Example 25, N-(5-tert-Butyl-1,2-oxazol-3-yl)-2-[(2-fluorophenyl)amino]-1,3-thiazole-4-carboxamide]",2490 nM
8,"O=C(NCCCN1CCc2ccccc2C1)c1csc(Nc2ccc(Cl)cc2)n1 [Example 26, 2-[(4-Chlorophenyl)amino]-N-[3-(3,4-dihydroisoquinolin-2(1H)-yl)propyl]-1,3-thiazole-4-carboxamide]",7850 nM
9,"O=C(c1csc(Nc2ccc(Cl)cc2)n1)N1CCC(N2CCc3ccccc3C2)CC1 [Example 27, {2-[(4-Chlorophenyl)amino]-1,3-thiazol-4-yl}{4-[3,4-dihydroisoquinolin-2(1H)-yl]piperidin-1-yl}methanone]",7610 nM
10,"O=C(Nc1ccn(CCO)n1)c1csc(Nc2ccccc2)n1 [Example 28, N-[1-(2-Hydroxyethyl)-1H-pyrazol-3-yl]-2-(phenylamino)-1,3-thiazole-4-carboxamide]",9100 nM
11,"Cc1c(NC(=O)c2csc(Nc3ccc(Cl)cc3)n2)noc1C(C)(C)C [Example 29, N-(5-tert-Butyl-4-methyl-1,2-oxazol-3-yl)-2-[(4-chlorophenyl)amino]-1,3-thiazole-4-carboxamide]",9680 nM
12,"N#Cc1c[nH]nc1NC(=O)c1csc(Nc2ccccc2)n1 [Example 30, N-(4-Cyano-1H-pyrazol-3-yl)-2-(phenylamino)-1,3-thiazole-4-carboxamide]",12000 nM
13,"O=C(Nc1cnn(C2COC2)c1)c1csc(Nc2ccc(Cl)cc2)n1 [Example 31, 2-[(4-Chlorophenyl)amino]-N-[1-(oxetan-3-yl)-1H-pyrazol-4-yl]-1,3-thiazole-4-carboxamide]",15100 nM
14,"CC(C)(C)c1cc(NC(=O)c2csc(NC3CC3)n2)no1 [Example 32, N-(5-tert-Butyl-1,2-oxazol-3-yl)-2-(cyclopropylamino)-1,3-thiazole-4-carboxamide]",14700 nM
15,"Cc1ccc(Nc2nc(C(=O)Nc3cc(C(C)(C)C)on3)cs2)nc1 [Example 34, N-(5-tert-Butyl-1,2-oxazol-3-yl)-2-[(5-methylpyridin-2-yl)amino]-1,3-thiazole-4-carboxamide]",41.8 nM
16,"CC(C)(C)c1cc(NC(=O)c2csc(Nc3ccc(Cl)cn3)n2)no1 [Example 35, N-(5-tert-Butyl-1,2-oxazol-3-yl)-2-[(5-chloropyridin-2-yl)amino]-1,3-thiazole-4-carboxamide]",49.6 nM
17,"CC(C)(C)c1cc(NC(=O)c2csc(Nc3cc(Cl)ccn3)n2)no1 [Example 36, N-(5-tert-Butyl-1,2-oxazol-3-yl)-2-[(4-chloropyridin-2-yl)amino]-1,3-thiazole-4-carboxamide]",105 nM
18,"CC(C)(C)c1cc(NC(=O)c2csc(NCCc3ccccc3)n2)no1 [Example 37, N-(5-tert-Butyl-1,2-oxazol-3-yl)-2-[(2-phenylethyl)amino]-1,3-thiazole-4-carboxamide]",119 nM
19,"CC(C)(C)c1cc(NC(=O)c2csc(Nc3ccc4c(c3)CCC4)n2)no1 [Example 38, N-(5-tert-Butyl-1,2-oxazol-3-yl)-2-(2,3-dihydro-1H-inden-5-ylamino)-1,3-thiazole-4-carboxamide]",160 nM
20,"CC(C)(C)c1cc(NC(=O)c2csc(Nc3ccc(Cl)c(F)c3)n2)no1 [Example 39, N-(5-tert-Butyl-1,2-oxazol-3-yl)-2-[(4-chloro-3-fluorophenyl)amino]-1,3-thiazole-4-carboxamide]",183 nM
21,"CC(C)(C)c1cc(NC(=O)c2csc(Nc3ccc4ccoc4c3)n2)no1 [Example 40, 2-(1-Benzofuran-6-ylamino)-N-(5-tert-butyl-1,2-oxazol-3-yl)-1,3-thiazole-4-carboxamide]",350 nM
22,"Cc1ccc(Nc2nc(C(=O)Nc3cc(C(C)(C)C)on3)cs2)c(F)c1 [Example 41, N-(5-tert-Butyl-1,2-oxazol-3-yl)-2-[(2-fluoro-4-methylphenyl)amino]-1,3-thiazole-4-carboxamide]",426 nM
23,"CC(C)(C)c1cc(NC(=O)c2csc(NCc3cccc(F)c3)n2)no1 [Example 42, N-(5-tert-Butyl-1,2-oxazol-3-yl)-2-[(3-fluorobenzyl)amino]-1,3-thiazole-4-carboxamide]",508 nM
24,"Cc1cccc(Nc2nc(C(=O)Nc3cc(C(C)(C)C)on3)cs2)c1 [Example 43, N-(5-tert-Butyl-1,2-oxazol-3-yl)-2-[(3-methylphenyl)amino]-1,3-thiazole-4-carboxamide]",512 nM
25,"CC(C)(C)c1cc(NC(=O)c2csc(NCc3ccco3)n2)no1 [Example 44, N-(5-tert-Butyl-1,2-oxazol-3-yl)-2-[(furan-2-ylmethyl)amino]-1,3-thiazole-4-carboxamide]",606 nM
26,"CC(C)(C)c1cc(NC(=O)c2csc(Nc3ccc(F)c(F)c3)n2)no1 [Example 45, N-(5-tert-Butyl-1,2-oxazol-3-yl)-2-[(3,4-difluorophenyl)amino]-1,3-thiazole-4-carboxamide]",815 nM
27,"CC(C)(C)c1cc(NC(=O)c2csc(Nc3ccc(F)c(Cl)c3)n2)no1 [Example 46, N-(5-tert-Butyl-1,2-oxazol-3-yl)-2-[(3-chloro-4-fluorophenyl)amino]-1,3-thiazole-4-carboxamide]",1200 nM
28,"CC(C)(C)c1cc(NC(=O)c2csc(Nc3ccccc3C(=O)Nc3cc4ccccc4cn3)n2)no1 [Example 47, N-(5-tert-Butyl-1,2-oxazol-3-yl)-2-{[2-(isoquinolin-3-ylcarbamoyl)phenyl]amino}-1,3-thiazole-4-carboxamide]",1300 nM
29,"CC(C)(C)c1cc(NC(=O)c2csc(Nc3cccc(Cl)c3)n2)no1 [Example 48, N-(5-tert-Butyl-1,2-oxazol-3-yl)-2-[(3-chlorophenyl)amino]-1,3-thiazole-4-carboxamide]",2990 nM
